In PubChem BioAssay (NCI):
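Cells were grown in 96-well plates and exposed to each compound for 48 hours at five concentrations; endpoints were interpolated linearly between bracketing concentrations, or set to the highest concentration if not reached. At the GI50, growth is halved. The concentration for full growth arrest is given as TGI.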

Columns and labels:
Test in all cases: NCI anticancer screen, dose series, 48 h; in the data active = GI50 below about 0.43 µM; inactive = the rest
SN12C renal = tested on: SN12C renal
HS 578T breast = tested on: HS 578T breast
RPMI-8226 leukemia = tested on: RPMI-8226 leukemia
SNB-19 CNS = tested on: SNB-19 CNS
SF-295 CNS = tested on: SF-295 CNS
BT-549 breast = tested on: BT-549 breast
MALME-3M melanoma = tested on: MALME-3M melanoma
786-0 renal = tested on: 786-0 renal
LOX IMVI melanoma = tested on: LOX IMVI melanoma
COLO 205 colon = tested on: COLO 205 colon
HOP-92 NSCLC = tested on: HOP-92 NSCLC
SW-620 colon = tested on: SW-620 colon
PC-3 prostate = tested on: PC-3 prostate
OVCAR-4 ovarian = tested on: OVCAR-4 ovarian
MDA-MB-231 breast = tested on: MDA-MB-231 breast
DU-145 prostate = tested on: DU-145 prostate
SF-539 CNS = tested on: SF-539 CNS
HCT-15 colon = tested on: HCT-15 colon
OVCAR-8 ovarian = tested on: OVCAR-8 ovarian
MOLT-4 leukemia = tested on: MOLT-4 leukemia
A549 NSCLC = tested on: A549 NSCLC
ACHN renal = tested on: ACHN renal
HOP-62 NSCLC = tested on: HOP-62 NSCLC
MDA-MB-435 = tested on: MDA-MB-435
NCI-H522 lung = tested on: NCI-H522 lung
EKVX NSCLC = tested on: EKVX NSCLC
K-562 leukemia = tested on: K-562 leukemia
HCC-2998 colon = tested on: HCC-2998 colon
RXF 393 renal = tested on: RXF 393 renal
MCF7 breast = tested on: MCF7 breast
SR leukemia = tested on: SR leukemia
NCI-H226 lung = tested on: NCI-H226 lung
UO-31 renal = tested on: UO-31 renal
U251 CNS = tested on: U251 CNS
SK-MEL-5 melanoma = tested on: SK-MEL-5 melanoma
M14 melanoma = tested on: M14 melanoma
UACC-62 melanoma = tested on: UACC-62 melanoma
HCT-116 colon = tested on: HCT-116 colon
T-47D breast = tested on: T-47D breast
OVCAR-3 ovarian = tested on: OVCAR-3 ovarian
HL-60(TB) leukemia = tested on: HL-60(TB) leukemia
HT29 colon = tested on: HT29 colon
CAKI-1 renal = tested on: CAKI-1 renal
SK-OV-3 ovarian = tested on: SK-OV-3 ovarian
CCRF-CEM leukemia = tested on: CCRF-CEM leukemia
NCI-H460 lung = tested on: NCI-H460 lung
SNB-75 CNS = tested on: SNB-75 CNS
SK-MEL-28 melanoma = tested on: SK-MEL-28 melanoma
NCI/ADR-RES ovarian = tested on: NCI/ADR-RES ovarian
A498 renal = tested on: A498 renal
NCI-H23 lung = tested on: NCI-H23 lung
TK-10 renal = tested on: TK-10 renal
SF-268 CNS = tested on: SF-268 CNS
SK-MEL-2 melanoma = tested on: SK-MEL-2 melanoma
IGROV1 ovarian = tested on: IGROV1 ovarian
OVCAR-5 ovarian = tested on: OVCAR-5 ovarian
UACC-257 melanoma = tested on: UACC-257 melanoma
KM12 colon = tested on: KM12 colon

COc1cccc(/C=C/c2nc3c(cnn3-c3ccccc3)c(=O)[nH]2)c1
inactive: GI50 (SN12C renal) > 100 µM | GI50 (HS 578T breast) 13.7 µM | GI50 (RPMI-8226 leukemia) > 100 µM | GI50 (SNB-19 CNS) > 51.9 µM | GI50 (SF-295 CNS) 17.8 µM | GI50 (BT-549 breast) > 72.9 µM | GI50 (MALME-3M melanoma) > 100 µM | GI50 (786-0 renal) 12.4 µM | GI50 (LOX IMVI melanoma) > 100 µM | GI50 (COLO 205 colon) > 100 µM | GI50 (HOP-92 NSCLC) > 100 µM | GI50 (SW-620 colon) > 31.4 µM | GI50 (PC-3 prostate) > 100 µM | GI50 (OVCAR-4 ovarian) > 34.9 µM | GI50 (MDA-MB-231 breast) 50 µM | GI50 (DU-145 prostate) > 100 µM | GI50 (SF-539 CNS) > 70 µM | GI50 (HCT-15 colon) > 100 µM | GI50 (OVCAR-8 ovarian) > 54.7 µM | GI50 (MOLT-4 leukemia) > 100 µM | GI50 (A549 NSCLC) > 39.6 µM | GI50 (ACHN renal) 28.1 µM | GI50 (HOP-62 NSCLC) 7.19 µM | GI50 (MDA-MB-435) 0.447 µM | GI50 (NCI-H522 lung) > 100 µM | GI50 (EKVX NSCLC) 65.8 µM | GI50 (HCC-2998 colon) > 100 µM | GI50 (RXF 393 renal) 17.3 µM | GI50 (MCF7 breast) 0.467 µM | GI50 (NCI-H226 lung) > 100 µM | GI50 (UO-31 renal) > 56.8 µM | GI50 (U251 CNS) > 72.1 µM | GI50 (SK-MEL-5 melanoma) > 96.6 µM | GI50 (M14 melanoma) > 39 µM | GI50 (UACC-62 melanoma) > 100 µM | GI50 (HCT-116 colon) 12 µM | GI50 (OVCAR-3 ovarian) 24.9 µM | GI50 (HL-60(TB) leukemia) > 62.8 µM | GI50 (HT29 colon) > 59 µM | GI50 (CAKI-1 renal) > 45.6 µM | GI50 (SK-OV-3 ovarian) > 100 µM | GI50 (CCRF-CEM leukemia) > 100 µM | GI50 (NCI-H460 lung) > 81.8 µM | GI50 (SNB-75 CNS) > 25 µM | GI50 (SK-MEL-28 melanoma) > 100 µM | GI50 (NCI/ADR-RES ovarian) > 33.7 µM | GI50 (A498 renal) > 100 µM | GI50 (NCI-H23 lung) > 100 µM | GI50 (TK-10 renal) > 28.2 µM | GI50 (SF-268 CNS) > 55.6 µM | GI50 (SK-MEL-2 melanoma) > 100 µM | GI50 (IGROV1 ovarian) 13 µM | GI50 (OVCAR-5 ovarian) > 100 µM | GI50 (UACC-257 melanoma) > 100 µM | GI50 (KM12 colon) 25.5 µM
> 89.3 µM: TGI (SNB-75 CNS)
67.9 µM: TGI (RXF 393 renal)
> 100 µM: TGI (SN12C renal) | TGI (HS 578T breast) | TGI (RPMI-8226 leukemia) | TGI (SNB-19 CNS) | TGI (SF-295 CNS) | TGI (BT-549 breast) | TGI (MALME-3M melanoma) | TGI (786-0 renal) | TGI (LOX IMVI melanoma) | TGI (COLO 205 colon) | TGI (HOP-92 NSCLC) | TGI (SW-620 colon) | TGI (PC-3 prostate) | TGI (OVCAR-4 ovarian) | TGI (MDA-MB-231 breast) | TGI (DU-145 prostate) | TGI (SF-539 CNS) | TGI (HCT-15 colon) | TGI (OVCAR-8 ovarian) | TGI (MOLT-4 leukemia) | TGI (A549 NSCLC) | TGI (ACHN renal) | TGI (HOP-62 NSCLC) | TGI (NCI-H522 lung) | TGI (EKVX NSCLC) | TGI (K-562 leukemia) | TGI (HCC-2998 colon) | TGI (MCF7 breast) | TGI (SR leukemia) | TGI (NCI-H226 lung) | TGI (UO-31 renal) | TGI (U251 CNS) | TGI (SK-MEL-5 melanoma) | TGI (M14 melanoma) | TGI (UACC-62 melanoma) | TGI (HCT-116 colon) | TGI (T-47D breast) | TGI (OVCAR-3 ovarian) | TGI (HL-60(TB) leukemia) | TGI (HT29 colon) | TGI (CAKI-1 renal) | TGI (SK-OV-3 ovarian) | TGI (CCRF-CEM leukemia) | TGI (NCI-H460 lung) | TGI (SK-MEL-28 melanoma) | TGI (NCI/ADR-RES ovarian) | TGI (A498 renal) | TGI (NCI-H23 lung) | TGI (TK-10 renal) | TGI (SF-268 CNS) | TGI (SK-MEL-2 melanoma) | TGI (IGROV1 ovarian) | TGI (OVCAR-5 ovarian) | TGI (UACC-257 melanoma) | TGI (KM12 colon)
> 72.4 µM: TGI (MDA-MB-435)
